Drawing on PMC11388281, “Prevotella are major contributors of sialidases in the human vaginal microbiome” (Proceedings of the National Academy of Sciences of the …, 2024), this text covers IC50 for two compounds.

Assay in all cases: fluorescence sialidase assay with 4-MU-Neu5Ac
Common to all, as to assay type: biochemical

In assay [1] the target is T1, PtNanH2 (Hoylesella timonensis, UniProt D1VWZ8).
T1 construct: gene HMPREF9019_0332; full-length gene in pET28a, N-terminal His6 tag, E. coli BL21(DE3); 1,030 amino acids incl. predicted signal peptide

For assay [2], the target named is T2, PtNanH1 (Hoylesella timonensis, UniProt D1VY87).
T2 construct: gene HMPREF9019_1088; full-length gene in pET28a, N-terminal His6 tag, E. coli BL21(DE3); 413 amino acids incl. predicted signal peptide

The target of assay [3] is T3, GvNanH3 (Gardnerella vaginalis, UniProt S4HLQ0).
T3 construct: full-length gene in pET28a, N-terminal His6 tag, E. coli BL21(DE3)
The text has this: fluorescence sialidase assay with 4-MU-Neu5Ac on GvNanH3 | All enzymes were inhibited by the well-characterized, broad-spectrum sialidase inhibitor, Neu5ac2en

For assay [4], the target named is T4, PbNanH (Prevotella bivia, UniProt I4ZBT3).
T4 construct: gene PrebiDRAFT_2006; full-length gene in pET28a, N-terminal His6 tag, E. coli BL21(DE3)
The note with it: 100 µM 4-MU-Neu5Ac, 5 nM enzyme, sodium acetate pH 5.5, 37 °C. The text has this: fluorescence sialidase assay with 4-MU-Neu5Ac on PbNanH | All enzymes were inhibited by the well-characterized, broad-spectrum sialidase inhibitor, Neu5ac2en

In assay [5] the target is T5, PdNanH (Prevotella denticola, UniProt F0H7U2).
T5 construct: gene HMPREF9303_0049; full-length gene in pET28a, N-terminal His6 tag, E. coli BL21(DE3); predicted signal peptide
The following applies: 100 µM 4-MU-Neu5Ac, 5 nM enzyme, sodium acetate pH 5.5, 37 °C. The text has this:
fluorescence sialidase assay with 4-MU-Neu5Ac on PdNanH | All enzymes were inhibited by the well-characterized, broad-spectrum sialidase inhibitor, Neu5ac2en

For `CC(=O)N[C@H]1[C@H]([C@H](O)[C@H](O)CO)OC(C(=O)O)=C[C@@H]1O` [Neu5Ac2en], the half-maximal inhibitory concentration (IC50) (commonly the concentration at which inhibition is half-maximal) in assay [1] amounted to 56 ± 23 µM; in assay [2], 180 ± 92.3 µM; in assay [3], 29 ± 5.6 µM; in assay [4], 103 ± 20.3 µM; in assay [5], 50.5 ± 22.5 µM.

The compound `CC(=O)N[C@H]1[C@H]([C@H](O)[C@H](O)CO)OC(C(=O)O)=C[C@@H]1N=C(N)N` [Zanamivir] showed an IC50 in assay [1] of 33.6 ± 15.5 µM.
